Reference: US9499502B2, “5-substituted iminothiazines and their mono- and dioxides as BACE inhibitors, compositions, and their use” (Merck Sharp & Dohme Corp., priority 2011, dated 2016)

Biological target: purified human autoBACE-2 (Homo sapiens (Human), UniProt Q9Y5Z0)
Experiment: BACE-2 Assay (BACE-HTRF assay)
Format: biochemical
Conditions: not given
Method: Inhibitor IC50s at purified human autoBACE-2 are determined in a time-resolved endpoint proteolysis assay that measures hydrolysis of the QSY7-[…]-Eu-amide FRET peptide substrate (BACE-HTRF assay). […] DMSO is present at 5% final concentration in the assay. Following laser excitation of sample wells at 320 nm, the fluorescence signal at 620 nm is collected for 400 ms following a 50 μs delay on a RUBYstar HTRF plate reader (BMG Labtechnologies). Raw RFU data is normalized to maximum (1.0 nM BACE/DMSO) and minimum (no enzyme/DMSO) RFU values. […] The Ki values are calculated from the IC50 using the Cheng-Prusoff equation.

Sequence of purified human autoBACE-2 (Q9Y5Z0 63-473): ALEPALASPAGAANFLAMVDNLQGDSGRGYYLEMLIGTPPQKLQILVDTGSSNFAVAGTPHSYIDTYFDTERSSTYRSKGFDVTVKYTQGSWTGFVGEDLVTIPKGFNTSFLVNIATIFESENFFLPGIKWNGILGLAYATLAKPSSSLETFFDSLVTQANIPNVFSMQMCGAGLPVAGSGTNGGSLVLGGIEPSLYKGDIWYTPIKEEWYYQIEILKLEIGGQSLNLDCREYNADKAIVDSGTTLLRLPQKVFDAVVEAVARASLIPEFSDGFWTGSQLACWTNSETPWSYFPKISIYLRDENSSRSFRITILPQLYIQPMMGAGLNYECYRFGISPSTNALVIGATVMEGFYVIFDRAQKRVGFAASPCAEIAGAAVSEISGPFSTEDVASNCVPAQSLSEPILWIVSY

SMILES	Ki [µM]
C[C@@]1(c2ccc(F)cc2)C(=N)N[C@](C)(c2cc(NC(=O)c3ccc(F)cn3)ccc2F)CS1(=O)=O [Example 9df-b]	0.011 to 0.1
CC1(C)C(=N)N[C@](C)(c2cc(N)ccc2F)CS1(=O)=O [Example 2-2]	0.5 to 10

Same assay, conditions: Ki calculated from IC50 using the Cheng-Prusoff equation; read-out: BACE2 Ki

SMILES	Ki [µM]
CC1(C)C(=N)N[C@](C)(c2sc(-c3cccc(-c4ncon4)c3)cc2F)CS1(=O)=O [Example 27ao]	≤ 0.02
C[C@@]1(c2cc(NC(=O)c3ccc(C(F)(F)F)cn3)ccc2F)CS(=O)(=O)[C@@](C)(c2ccccn2)C(=N)N1 [Example 9cz-a]	0.011 to 0.1
COc1cnc(C(=O)Nc2ccc(F)c([C@]3(C)CS(=O)(=O)[C@@](C)(c4ccccn4)C(=N)N3)c2)cn1 [Example 9cy-a]	0.011 to 0.1
CC1(C)C(=N)N[C@](C)(c2cc(N)cc(F)c2F)CS1(=O)=O [Example 2A-5]	0.5 to 10
C[C@@]1(C2CCC2)C(=N)N[C@](C)(c2cc(NC(=O)c3ccc(F)cn3)ccc2F)CS1(=O)=O [Example 9dv-b]	0.011 to 0.1
CC1(C)C(=N)N[C@](C)(c2sc(C(=O)NCc3cccc(-c4ccon4)c3)cc2Cl)CS1(=O)=O [Example 22g]	0.051
CC1(C)C(=N)N[C@](C)(c2cc(NC(=O)c3ccc(C#N)cn3)cc(F)c2F)CS1(=O)=O [Example 9bg]	0.003
CC1(C)C(=N)N[C@](C)(c2sc(N3Cc4cc(F)ccc4C3=O)cc2Cl)CS1(=O)=O [Example 35a]	1.4
COc1cnc(C(=O)Nc2ccc(F)c([C@]3(C)CS(=O)(=O)C(C)(C)C(=N)N3)c2F)cn1 [Example 9z]	0.059
C[C@]1(CC(F)(F)F)C(=N)N[C@](C)(c2sc(-c3cccc(-c4nnco4)c3)cc2F)CS1(=O)=O [Example 27bk-a]	0.009
COc1cccc2cc(-c3cc(F)c([C@]4(C)CS(=O)(=O)C(C)(C)C(=N)N4)s3)[nH]c12 [Example 27an]	≤ 0.02
COc1cnc(C(=O)Nc2ccc(F)c([C@]3(C)CS(=O)(=O)[C@](C)(c4cccc(F)c4)C(=N)N3)c2)cn1 [Example 9dd-b]	0.101 to 0.7
CC(F)(F)C(=O)Nc1cc(F)c(F)c([C@]2(C)CS(=O)(=O)C(C)(C)C(=N)N2)c1 [Example 9bl]	0.04
COc1ccc(C(=O)Nc2cc(F)c(F)c([C@]3(C)CS(=O)(=O)C(C)(C)C(=N)N3)c2F)nc1 [Example 9ac]	0.013
C[C@@]1(c2cc(NC(=O)c3ccc(C(F)(F)F)cn3)ccc2F)CS(=O)(=O)[C@](C)(CC2CC2)C(=N)N1 [Example 9dl-b]	0.011 to 0.1
C[C@]1(CC(F)(F)F)C(=N)N[C@](C)(c2sc(-c3cccc(C#N)c3)cc2F)CS1(=O)=O [Example 27bj-a]	0.007
COc1cccc(-c2cc(F)c([C@]3(C)CS(=O)(=O)[C@@](C)(CC(F)(F)F)C(=N)N3)s2)c1 [Example 27bl-a]	0.009

SMILES	Ki [µM]
COc1cnc(C(=O)Nc2ccc(F)c([C@]3(C)CS(=O)(=O)[C@](C)(CC4CC4)C(=N)N3)c2)cn1 [Example 9dk-b]	0.011 to 0.1
CC1(C)C(=N)N[C@](C)(c2cc(NC(=O)c3cocn3)cc(F)c2F)CS1(=O)=O [Example 9bu]	0.005
CC1(C)C(=N)N[C@](C)(c2sc(-c3cccc(-n4nccn4)c3)cc2Cl)CS1(=O)=O [Example 27u]	≤ 0.01
COc1cnc(C(=O)Nc2ccc(F)c([C@]3(C)CS(=O)(=O)[C@](C)(C4CC4)C(=N)N3)c2)cn1 [Example 9cq-b]	0.011 to 0.1
C[C@@]1(c2cccc(F)c2)C(=N)N[C@](C)(c2cc(NC(=O)c3ccc(F)cn3)ccc2F)CS1(=O)=O [Example 9da-b]	0.011 to 0.1
COc1ccc(C(=O)Nc2ccc(F)c([C@]3(C)CS(=O)(=O)C(C)(C)C(=N)N3)c2F)nc1 [Example 9y]	0.011
C[C@@]1(C2CCC2)C(=N)N[C@](C)(c2cc(NC(=O)c3ccc(Cl)cn3)ccc2F)CS1(=O)=O [Example 9dw-b]	0.011 to 0.1
CC1(C)C(=N)N[C@](C)(c2cc(NC(=O)c3ccc(C(F)(F)F)cn3)cc(Cl)c2F)CS1(=O)=O [Example 9v]	0.013
CC1(C)C(=N)N[C@](C)(c2sc(-c3cccc(C(F)(F)F)c3)cc2Cl)CS1(=O)=O [Example 27e]	≤ 0.01
CC1(C)C(=N)N[C@](C)(c2sc(-c3cncc(Cl)c3)cc2Cl)CS1(=O)=O [Example 27l]	≤ 0.01
COc1cnc(C(=O)Nc2cc([C@]3(C)CS(=O)(=O)C(C)(C)C(=N)N3)c(F)cc2Br)cn1 [Example 9by]	2.9
COc1ccc(C(=O)Nc2ccc(F)c([C@]3(C)CS(=O)(=O)[C@](C)(c4ccccn4)C(=N)N3)c2)nc1 [Example 9cx-b]	0.101 to 0.7
COc1ccccc1Nc1ccc(F)c(C2(C)CS(=O)(=O)C(C)(C)C(=N)N2)n1 (stereo not shown) [Example 30a]	0.517
COc1cnc(C(=O)Nc2ccc(F)c([C@]3(C)CS(=O)(=O)[C@](C)(C4CCC4)C(=N)N3)c2)cn1 [Example 9dy-b]	0.101 to 0.7
CC1(C)C(=N)N[C@](C)(c2sc(-c3cc(F)cc(-c4nnco4)c3)cc2F)CS1(=O)=O [Example 27as]	≤ 0.02
C[C@@]1(c2sc(-c3cccc(C#N)c3)cc2F)CS(=O)(=O)[C@@](C)(c2cccc(F)c2)C(=N)N1 [Example 27br-a]	0.01

Same assay, conditions: read-out: inhibition of BACE2 at 10 μM

SMILES	inhibition at 10 µM [%]
C[C@@]1(c2cccc(F)c2)C(=N)N[C@](C)(c2cc(N)ccc2F)CS1(=O)=O [Entry 61]	29 to 47
C[C@@]1(c2ccccn2)C(=N)N[C@](C)(c2cc(N)ccc2F)CS1(=O)=O [Entry 77]	29 to 47
C[C@@]1(c2cccc(F)c2)C(=N)N[C@](C)(c2sc(Br)cc2F)CS1(=O)=O [Entry 88]	29 to 47

Biological target: soluble human BACE1 catalytic domain (Homo sapiens (Human), UniProt P56817)
Sequence (P56817 75-416): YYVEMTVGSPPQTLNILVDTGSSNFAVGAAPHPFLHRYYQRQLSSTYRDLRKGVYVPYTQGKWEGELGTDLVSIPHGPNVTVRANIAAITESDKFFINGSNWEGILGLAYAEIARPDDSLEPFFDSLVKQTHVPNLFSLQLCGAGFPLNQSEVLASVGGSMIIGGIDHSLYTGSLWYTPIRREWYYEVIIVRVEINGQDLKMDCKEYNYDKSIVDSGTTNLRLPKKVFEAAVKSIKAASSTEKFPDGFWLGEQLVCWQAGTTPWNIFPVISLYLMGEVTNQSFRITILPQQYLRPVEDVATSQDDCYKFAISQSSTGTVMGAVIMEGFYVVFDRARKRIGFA
Experiment: BACE1 HTRF FRET Assay
Conditions: BACE1 Ki (nM)

SMILES	Ki [nM]
COc1ccccc1Nc1ccc(F)c(C2(C)CS(=O)(=O)C(C)(C)C(=N)N2)n1 (stereo not shown) [Example 30a]	5280

Same assay, conditions: read-out: BACE1 Ki

SMILES	Ki [nM]
CC1(C)C(=N)N[C@](C)(c2sc(-c3cccc(-c4ncon4)c3)cc2F)CS1(=O)=O [Example 27ao]	100
CC1(C)C(=N)N[C@](C)(c2sc(N3Cc4cc(F)ccc4C3=O)cc2Cl)CS1(=O)=O [Example 35a]	6080
C[C@]1(CC(F)(F)F)C(=N)N[C@](C)(c2sc(-c3cccc(-c4nnco4)c3)cc2F)CS1(=O)=O [Example 27bk-a]	4.7
COc1cccc2cc(-c3cc(F)c([C@]4(C)CS(=O)(=O)C(C)(C)C(=N)N4)s3)[nH]c12 [Example 27an]	21
C[C@]1(CC(F)(F)F)C(=N)N[C@](C)(c2sc(-c3cccc(C#N)c3)cc2F)CS1(=O)=O [Example 27bj-a]	35.7
COc1cccc(-c2cc(F)c([C@]3(C)CS(=O)(=O)[C@@](C)(CC(F)(F)F)C(=N)N3)s2)c1 [Example 27bl-a]	223
CC1(C)C(=N)N[C@](C)(c2sc(-c3cccc(-n4nccn4)c3)cc2Cl)CS1(=O)=O [Example 27u]	49.2
CC1(C)C(=N)N[C@](C)(c2sc(-c3cccc(C(F)(F)F)c3)cc2Cl)CS1(=O)=O [Example 27e]	74.5
CC1(C)C(=N)N[C@](C)(c2sc(-c3cncc(Cl)c3)cc2Cl)CS1(=O)=O [Example 27l]	92.2
CC1(C)C(=N)N[C@](C)(c2sc(-c3cc(F)cc(-c4nnco4)c3)cc2F)CS1(=O)=O [Example 27as]	9.4
C[C@@]1(c2sc(-c3cccc(C#N)c3)cc2F)CS(=O)(=O)[C@@](C)(c2cccc(F)c2)C(=N)N1 [Example 27br-a]	58.5

Same assay, conditions: read-out: BACE1 Ki; Ki calculated from IC50 using the Cheng-Prusoff equation

SMILES	Ki [nM]
C[C@@]1(c2cc(NC(=O)c3ccc(C(F)(F)F)cn3)ccc2F)CS(=O)(=O)[C@@](C)(c2ccccn2)C(=N)N1 [Example 9cz-a]	6
COc1cnc(C(=O)Nc2ccc(F)c([C@]3(C)CS(=O)(=O)[C@@](C)(c4ccccn4)C(=N)N3)c2)cn1 [Example 9cy-a]	6.9
C[C@@]1(C2CCC2)C(=N)N[C@](C)(c2cc(NC(=O)c3ccc(F)cn3)ccc2F)CS1(=O)=O [Example 9dv-b]	304
CC1(C)C(=N)N[C@](C)(c2sc(C(=O)NCc3cccc(-c4ccon4)c3)cc2Cl)CS1(=O)=O [Example 22g]	736
CC1(C)C(=N)N[C@](C)(c2cc(NC(=O)c3ccc(C#N)cn3)cc(F)c2F)CS1(=O)=O [Example 9bg]	6
C[C@@]1(c2ccc(F)cc2)C(=N)N[C@](C)(c2cc(NC(=O)c3ccc(F)cn3)ccc2F)CS1(=O)=O [Example 9df-b]	165
COc1cnc(C(=O)Nc2ccc(F)c([C@]3(C)CS(=O)(=O)C(C)(C)C(=N)N3)c2F)cn1 [Example 9z]	52.9
COc1cnc(C(=O)Nc2ccc(F)c([C@]3(C)CS(=O)(=O)[C@](C)(c4cccc(F)c4)C(=N)N3)c2)cn1 [Example 9dd-b]	228
CC(F)(F)C(=O)Nc1cc(F)c(F)c([C@]2(C)CS(=O)(=O)C(C)(C)C(=N)N2)c1 [Example 9bl]	79
COc1ccc(C(=O)Nc2cc(F)c(F)c([C@]3(C)CS(=O)(=O)C(C)(C)C(=N)N3)c2F)nc1 [Example 9ac]	18.9
C[C@@]1(c2cc(NC(=O)c3ccc(C(F)(F)F)cn3)ccc2F)CS(=O)(=O)[C@](C)(CC2CC2)C(=N)N1 [Example 9dl-b]	33.2
COc1cnc(C(=O)Nc2ccc(F)c([C@]3(C)CS(=O)(=O)[C@](C)(CC4CC4)C(=N)N3)c2)cn1 [Example 9dk-b]	42.6
CC1(C)C(=N)N[C@](C)(c2cc(NC(=O)c3cocn3)cc(F)c2F)CS1(=O)=O [Example 9bu]	42
COc1cnc(C(=O)Nc2ccc(F)c([C@]3(C)CS(=O)(=O)[C@](C)(C4CC4)C(=N)N3)c2)cn1 [Example 9cq-b]	96.7
C[C@@]1(c2cccc(F)c2)C(=N)N[C@](C)(c2cc(NC(=O)c3ccc(F)cn3)ccc2F)CS1(=O)=O [Example 9da-b]	198
COc1ccc(C(=O)Nc2ccc(F)c([C@]3(C)CS(=O)(=O)C(C)(C)C(=N)N3)c2F)nc1 [Example 9y]	44
C[C@@]1(C2CCC2)C(=N)N[C@](C)(c2cc(NC(=O)c3ccc(Cl)cn3)ccc2F)CS1(=O)=O [Example 9dw-b]	66.3
CC1(C)C(=N)N[C@](C)(c2cc(NC(=O)c3ccc(C(F)(F)F)cn3)cc(Cl)c2F)CS1(=O)=O [Example 9v]	9.6
COc1cnc(C(=O)Nc2cc([C@]3(C)CS(=O)(=O)C(C)(C)C(=N)N3)c(F)cc2Br)cn1 [Example 9by]	718
COc1ccc(C(=O)Nc2ccc(F)c([C@]3(C)CS(=O)(=O)[C@](C)(c4ccccn4)C(=N)N3)c2)nc1 [Example 9cx-b]	282
COc1cnc(C(=O)Nc2ccc(F)c([C@]3(C)CS(=O)(=O)[C@](C)(C4CCC4)C(=N)N3)c2)cn1 [Example 9dy-b]	499

Same assay, conditions: read-out: BACE1 inhibition, % Inh. at 10 μM, at 10 μM

SMILES	inhibition at 10 µM [%]
CC1(C)C(=N)N[C@](C)(c2cc(N)cc(F)c2F)CS1(=O)=O [Example 2A-5]	51
C[C@@]1(c2cccc(F)c2)C(=N)N[C@](C)(c2cc(N)ccc2F)CS1(=O)=O [Entry 61]	27
C[C@@]1(c2ccccn2)C(=N)N[C@](C)(c2cc(N)ccc2F)CS1(=O)=O [Entry 77]	25
C[C@@]1(c2cccc(F)c2)C(=N)N[C@](C)(c2sc(Br)cc2F)CS1(=O)=O [Entry 88]	34

Same assay, conditions: read-out: BACE1 inhibition, Ki

SMILES	Ki [nM]
CC1(C)C(=N)N[C@](C)(c2cc(N)ccc2F)CS1(=O)=O [Example 2-2]	6100
